Data set [1] deals with T1, CYP2A6 (Homo sapiens, UniProt P11509).
T1 sequence (P11509 1-494): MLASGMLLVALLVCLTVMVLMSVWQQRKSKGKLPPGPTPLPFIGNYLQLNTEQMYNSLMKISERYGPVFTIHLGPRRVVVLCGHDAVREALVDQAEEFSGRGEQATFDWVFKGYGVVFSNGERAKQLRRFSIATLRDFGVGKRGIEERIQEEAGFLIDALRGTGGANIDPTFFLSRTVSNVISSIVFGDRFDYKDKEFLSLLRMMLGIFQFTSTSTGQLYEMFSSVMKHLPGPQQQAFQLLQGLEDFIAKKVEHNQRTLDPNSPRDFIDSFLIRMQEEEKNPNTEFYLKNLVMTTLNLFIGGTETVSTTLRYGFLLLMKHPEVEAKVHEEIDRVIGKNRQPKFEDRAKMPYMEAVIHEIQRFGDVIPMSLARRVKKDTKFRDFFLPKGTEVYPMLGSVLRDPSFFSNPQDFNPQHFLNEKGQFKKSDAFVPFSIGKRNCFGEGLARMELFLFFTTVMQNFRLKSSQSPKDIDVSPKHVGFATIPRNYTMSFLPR
The conditions noted are these: 10 μM Tranylcypromine.

Data set [2] concerns the target T2, CYP2E1 (Homo sapiens, UniProt P05181). The conditions noted are these: 60 min, 100 μM, pH 7.4.
Data set [3] concerns the target T3, CYP1A2 (Homo sapiens, UniProt P05177).
T3 sequence (P05177 1-516): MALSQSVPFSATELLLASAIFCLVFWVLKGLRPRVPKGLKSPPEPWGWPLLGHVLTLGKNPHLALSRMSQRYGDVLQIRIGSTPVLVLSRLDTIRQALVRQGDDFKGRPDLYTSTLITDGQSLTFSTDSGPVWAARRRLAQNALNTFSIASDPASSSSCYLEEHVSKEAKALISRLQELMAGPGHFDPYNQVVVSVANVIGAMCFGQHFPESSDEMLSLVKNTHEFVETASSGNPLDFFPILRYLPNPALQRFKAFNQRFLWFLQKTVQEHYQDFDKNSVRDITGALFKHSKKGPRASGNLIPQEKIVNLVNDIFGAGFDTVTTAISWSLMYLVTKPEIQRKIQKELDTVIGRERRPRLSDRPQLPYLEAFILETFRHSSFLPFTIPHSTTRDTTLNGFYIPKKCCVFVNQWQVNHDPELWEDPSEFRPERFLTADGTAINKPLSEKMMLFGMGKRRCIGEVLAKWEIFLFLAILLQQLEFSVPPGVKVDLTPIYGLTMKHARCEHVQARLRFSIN
Particulars: 60 min, 5 μM, pH 7.4.

The target of data set [4] is T1, CYP2A6. In kind it is in vitro ADME. Also on record: purchased BD Biosciences Discovery Labware, Woburn, Mass; host or cells: baculovirus-infected insect cells. The conditions noted are these: LC/MS; 50 μM megestrol acetate (Parent), 20 pmol Human CYP2A6 + P450 Reductase + Cytochrome b5 SUPERSOMES
For data set [5], the system named is CYP2E1. Format: in vitro ADME. Particulars: 50 μM megestrol acetate (Parent).
The test system of data set [6] is CYP2C8. In kind it is in vitro ADME. The conditions noted are these: 50 μM megestrol acetate (Parent).
In data set [7] the target is T4, CYP2B6 (Homo sapiens, UniProt P20813).
T4 sequence (P20813 1-491): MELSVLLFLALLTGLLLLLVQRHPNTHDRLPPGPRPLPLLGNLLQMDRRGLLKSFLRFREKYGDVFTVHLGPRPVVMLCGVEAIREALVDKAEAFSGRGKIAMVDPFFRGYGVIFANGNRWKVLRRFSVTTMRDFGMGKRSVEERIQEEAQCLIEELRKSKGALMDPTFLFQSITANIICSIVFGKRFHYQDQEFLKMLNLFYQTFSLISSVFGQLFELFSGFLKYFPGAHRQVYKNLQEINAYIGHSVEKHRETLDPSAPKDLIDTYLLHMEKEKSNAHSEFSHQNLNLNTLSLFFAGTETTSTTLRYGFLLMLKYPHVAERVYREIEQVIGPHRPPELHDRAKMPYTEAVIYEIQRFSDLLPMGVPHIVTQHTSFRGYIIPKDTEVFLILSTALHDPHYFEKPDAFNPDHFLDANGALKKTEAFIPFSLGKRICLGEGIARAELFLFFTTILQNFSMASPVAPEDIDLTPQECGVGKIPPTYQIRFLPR
The conditions noted are these: 50 μM megestrol acetate (Parent), 0.5 mg/mL pooled human liver microsomes with 1% methanol (no inhibitor).

In data set [8] the target is T4, CYP2B6. In kind it is in vitro ADME. Further details: purchased BD Biosciences Discovery Labware, Woburn, Mass; host or cells: baculovirus-infected insect cells. The conditions noted are these: LC/MS; 50 μM megestrol acetate (Parent), 20 pmol Human CYP2B6 + P450 Reductase + Cytochrome b5 SUPERSOMES
In data set [9] the test system is CYP2A6. Particulars: 50 μM megestrol acetate (Parent), 0.5 mg/mL pooled human liver microsomes with 1% water (no inhibitor).
Data set [10] concerns the target T2, CYP2E1. In kind it is in vitro ADME. Also on record: purchased BD Biosciences Discovery Labware, Woburn, Mass; host or cells: baculovirus-infected insect cells. Particulars: LC/MS; 50 μM megestrol acetate (Parent), 20 pmol Human CYP2E1 + P450 Reductase + Cytochrome b5 SUPERSOMES
Data set [11] addresses T5, CYP2C8 (Homo sapiens, UniProt P10632).
T5 sequence (P10632 1-490): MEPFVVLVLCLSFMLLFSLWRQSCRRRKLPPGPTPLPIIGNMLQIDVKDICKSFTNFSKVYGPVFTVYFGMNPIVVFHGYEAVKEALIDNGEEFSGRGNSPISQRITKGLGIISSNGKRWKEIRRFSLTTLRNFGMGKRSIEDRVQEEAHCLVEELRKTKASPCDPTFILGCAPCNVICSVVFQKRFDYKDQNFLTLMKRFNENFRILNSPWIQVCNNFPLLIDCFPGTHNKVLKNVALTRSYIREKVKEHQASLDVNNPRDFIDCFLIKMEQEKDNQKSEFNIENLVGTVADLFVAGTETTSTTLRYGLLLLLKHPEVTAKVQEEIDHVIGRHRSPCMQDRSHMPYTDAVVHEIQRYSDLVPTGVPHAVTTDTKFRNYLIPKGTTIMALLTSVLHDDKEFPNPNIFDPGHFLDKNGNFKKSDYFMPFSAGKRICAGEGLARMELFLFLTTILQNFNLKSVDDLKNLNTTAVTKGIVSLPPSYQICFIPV
In kind it is in vitro ADME. Further details: purchased BD Biosciences Discovery Labware, Woburn, Mass; host or cells: baculovirus-infected insect cells. The conditions noted are these: LC/MS; 50 μM megestrol acetate (Parent), 20 pmol Human CYP2C8 + P450 Reductase + Cytochrome b5 SUPERSOMES

Data set [12] concerns the target T5, CYP2C8. Particulars: 60 min, 100 μM, pH 7.4.
Experimental: After a 5-minute pre-incubation, NRS was added to the incubation mixtures to initiate reactions. The final incubation volume was 0.5 mL. Incubations were continued for 60 minutes. […] In these experiments, each CYP isoform-selective substrate was prepared as 100× stock solutions in the solvent listed below.
Incubation reactions for positive controls were terminated by adding 0.5 mL methanol, except for paclitaxel (CYP2C8) which was terminated by adding 0.75 mL of acetonitrile.
Specific activity for each CYP isoform was calculated based on the formation of metabolite from each CYP isoform-selective substrate.
Where [13] appears, read: 0.5 mg/mL pooled human liver microsomes with 100 μM Diethyldithiocarbamate.
The mark [14] stands for this setting: 0.5 mg/mL pooled human liver microsomes with 1% water (no inhibitor).
[15] abbreviates: 0.5 mg/mL pooled human liver microsomes with 100 μM Quercetin.
The mark [16] stands for this setting: 0.5 mg/mL pooled human liver microsomes with 0.1% DMSO (no inhibitor).

Several values for one entry are separate records, joined by “and”; a condition that tells them apart may be missing. Equal values may be shown once. Read-outs that look alike come from different tables or passages of the source.

T2 sequence (P05181 whole entry): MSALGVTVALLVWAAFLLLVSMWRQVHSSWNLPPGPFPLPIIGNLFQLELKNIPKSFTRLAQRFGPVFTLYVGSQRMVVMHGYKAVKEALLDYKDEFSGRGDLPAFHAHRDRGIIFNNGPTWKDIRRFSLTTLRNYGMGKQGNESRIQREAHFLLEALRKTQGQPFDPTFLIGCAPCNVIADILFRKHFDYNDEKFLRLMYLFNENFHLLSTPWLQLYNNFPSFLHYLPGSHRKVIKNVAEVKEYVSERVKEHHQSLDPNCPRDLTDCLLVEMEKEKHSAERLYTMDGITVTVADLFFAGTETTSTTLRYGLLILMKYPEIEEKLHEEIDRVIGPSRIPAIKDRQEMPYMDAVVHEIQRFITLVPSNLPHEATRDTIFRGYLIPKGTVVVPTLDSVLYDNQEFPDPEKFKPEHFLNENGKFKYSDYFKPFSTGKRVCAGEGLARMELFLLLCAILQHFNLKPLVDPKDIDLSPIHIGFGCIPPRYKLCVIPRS

For `N[C@@H]1C[C@H]1c1ccccc1` (racemic) [Tranylcypromine], in data set [1], the “CYP2A6 activity in presence of inhibitor” value was 18.7±0.597 pmol metabolite/minute/mg protein; the “Metabolite Formation Adjusted Individual” value is 0.582 µM and 0.548 µM and 0.556 µM; the “Metabolite Formation Adjusted Mean ± SD” value was determined as 0.562 ± 0.0179 µM; the “Metabolite Formation Raw” value was 0.582 µM and 0.5477 µM and 0.5561 µM. Further, in data set [1], the “Specific Activity Individual” value is 19.4 pmol metabolite/min/pmol protein and 18.3 pmol metabolite/min/pmol protein and 18.5 pmol metabolite/min/pmol protein; the “Specific Activity Mean ± SD” value is 18.7 ± 0.597 pmol metabolite/min/pmol protein.

As to `CCN(CC)C(=S)S` [DDC, Diethyldithiocarbamate], in [2], the “Metabolite Formation Adjusted Mean ± SD” value amounted to 1.77 ± 0.0341 µM and the “Specific Activity Mean ± SD” value is reported as 58.9 ± 1.14 pmol metabolite/min/pmol protein. Besides, in [2] (microsomes), the “CYP2E1 activity in presence of inhibitor” value is on record as 58.9±1.14 pmol metabolite/minute/mg protein.

With `Cc1nc2c([nH]1)c(=O)n(C)c(=O)n2Cc1ccco1` [Furafylline], the “Metabolite Formation Adjusted Mean ± SD” value in data set [3] worked out at 0.593 ± 0.0333 µM.

In the case of `CC(=O)O[C@]1(C(C)=O)CC[C@H]2[C@@H]3C=C(C)C4=CC(=O)CC[C@]4(C)[C@H]3CC[C@@]21C` [Parent], the Area % is reported as 100.00% in data set [4]; 90.95% in data set [5] (setting [13]); 59.79% in data set [5] (setting [14]); 99.11% in data set [6] (setting [15]); 69.53% in data set [6] (setting [16]); 63.45% in data set [7]. The Area % in [8] is 98.77%; in [9] it was 59.79%; in data set [10], 100.00%; in data set [11] it was 99.28%. Further, the “Peak Area” value in data set [4] came to 7120.60; in [5] (setting [13]), 5225.10; in data set [5] (setting [14]), 3520.60; in [6] (setting [15]) it was 5734.70; in [6] (setting [16]), 4151.30; in data set [7], 2924.70. For the same compound, the “Peak Area” value in data set [8] came to 7320.20; in [9], 2932.40; in data set [10], 7274.10; in data set [11], 7474.90.

For the compound `O=c1c(O)c(-c2ccc(O)c(O)c2)oc2cc(O)cc(O)c12` [Quercetin], the “Specific Activity Mean ± SD” value in [12] is given as 2.64 ± 0.250 pmol metabolite/min/pmol protein. Besides, the “CYP2C8 activity in presence of inhibitor” value in data set [12] (microsomes) is recorded as 2.64±0.250 pmol metabolite/minute/mg protein.
